The nature of series [1]: Plasma blood levels in mice following subcutaneous administration. It counts as in vivo. Particulars: for bioavailability: sub-cutaneous administration, compared with salts XOB and U. On the procedure: The plasma blood levels in mice (mean of 3 per time point) of compositions XOB, YOB, PFOB and […] were measured at time points of 5, 10, 20 and 30 minutes following subcutaneous (SC) administration at a dose of 50 mg per kg. The results are shown in Table 2 and illustrated in FIG. 1.

Series [2] relates to C. freundii C2-con. Kind of series: MIC by agar dilution (NCCLS), de-repressed Class C β-lactamases. It counts as cell-based. The settings on record: unit assumed. On the procedure: (§1) The assays to determine the Minimum Inhibitory Concentration (MIC) were performed by Agar dilution according to NCCLS guidelines (2000).
The test system of series [3] is E. cloacae 84-CON. The description is as above. It counts as cell-based. The settings on record: unit assumed. On the procedure: as §1
Series [4] concerns E. cloacae Hennessy. Described as above. The format is cell-based. The settings on record: unit assumed. The procedure:
as §1

Series [5] concerns S marcescens S2-con. Described as above. The settings on record: unit assumed. It counts as cell-based. On the procedure: as §1
Series [6] deals with E. coli ATCC 25922. The series can be described thus: MIC by agar dilution (NCCLS), Class A β-lactamases. It counts as cell-based. Particulars: CAZ alone or 2:1 ratio of ceftazidime with oxapenem, unit assumed. The procedure:
as §1
For orientation: In agar dilution the substance is mixed into plates at graded concentrations.

The subject of series [7] is E. coli TEM-10. Kind of series: MIC by agar dilution (NCCLS), Class A β-lactamases. The settings on record: CAZ alone or 2:1 ratio of ceftazidime with oxapenem, unit assumed. It counts as cell-based. On the procedure: as §1
Series [8] concerns E. coli TEM-1. The series can be described thus: MIC by agar dilution (NCCLS), Class A β-lactamases. The format is cell-based. The settings on record: CAZ alone or 2:1 ratio of ceftazidime with oxapenem, unit assumed. The procedure:
as §1

For series [9], the system named is E. coli TEM-3. Kind of series: MIC by agar dilution (NCCLS), Class A β-lactamases. Particulars: CAZ alone or 2:1 ratio of ceftazidime with oxapenem, unit assumed. The format is cell-based. On the procedure: as §1
Series [10] has as its system E. coli TEM-6. The series can be described thus: MIC by agar dilution (NCCLS), Class A β-lactamases. It counts as cell-based. Particulars: CAZ alone or 2:1 ratio of ceftazidime with oxapenem, unit assumed. The procedure: as §1
For series [11], the system named is E. coli TEM-9. The series can be described thus: MIC by agar dilution (NCCLS), Class A β-lactamases. The format is cell-based. Particulars: CAZ alone or 2:1 ratio of ceftazidime with oxapenem, unit assumed. The procedure:
as §1

For series [12], the system named is E. cloacae P99. The series can be described thus: MIC by agar dilution (NCCLS), de-repressed Class C β-lactamases. The format is cell-based. The settings on record: unit assumed. On the procedure: as §1
The conditions of series [13]: human serum; cited from earlier work.
Series [14] is described as follows: Chemical stability: half-life of hydrolysis in phosphate buffer by UV spectroscopy. The format is physicochemical. The settings on record: 37° C., physiological phosphate buffer pH 7.4, 10^−4M oxapenem. On the procedure:
The half-lives of hydrolysis were determined at 37° C. in physiological phosphate buffer pH 7.4 by UV spectroscopy at 265 nm at a 10^−4M concentration of oxapenem

Series [15] in a line: Stability in blood serum, determined microbiologically by agar diffusion test. It counts as in vitro ADME, bovine. The procedure: The blood serum stability was determined microbiologically using an agar diffusion test with Escherichia coli TEM 1 (penicillin resistant). The oxapenems were incubated with sterile bovine serum (OXOID) at 37° C. in 0.033% concentration.
On the technique in general: A growth-free zone around the sample is the usual read-out of agar diffusion tests.

The mark [16] stands for this setting: CAZ alone or 1:1 ratio of ceftazidime with oxapenem.
The mark [17] stands for this setting: CAZ alone or 2:1 ratio of ceftazidime with oxapenem.

The values below come from patent US7247622B2, “Pharmaceutical compositions containing oxapenem-3-carboxylic acids” (Amura Limited, priority 2000, dated 2007).

Molecules are shown by their SMILES. A value given as a limit tells only on which side of the number the result lay.

Regarding `C[C@@H](O)[C@H]1C(=O)N2C(C(=O)O)=C(C(C)(C)CCCN)O[C@H]12` [(5R,6R,1′R)-3-(4-amino-1,1-dimethylbutyl)-6-(1′-hydroxyethyl)-7-oxo-4-oxa-1-azabicyclo[3.2.0]hept-2-ene-2-carboxylic Acid], the concentration at 5 min in [1] (mouse, plasma, SC 50 mg per kg, 5 min, mean of 3, read-out: Conc. (mg/L) 5 min) stood at 26.4 mg/L. Moreover, in series [1] (mouse, plasma, SC 50 mg per kg, 10 min, mean of 3, read-out: Conc. (mg/L) 10 min), the concentration at 10 min stood at 25.4 mg/L. Also, in [1] (mouse, plasma, SC 50 mg per kg, 20 min, mean of 3, read-out: Conc. (mg/L) 20 min), the concentration at 20 min is 12.9 mg/L. Further, the concentration at 30 min in [1] (mouse, plasma, SC 50 mg per kg, 30 min, mean of 3, read-out: Conc. (mg/L) 30 min) came out at 2.89 mg/L. Further, the bioavailability entry in [1] is “remarkably superior bioavailability”. In addition, the MIC (in general, the lowest concentration found to suppress growth) in [2] (setting [16]) turned out to be 0.03 µg/mL; in series [2] (setting [17]) it was 2 µg/mL; in series [3] (setting [16]) it was 4 µg/mL; in [3] (setting [17]), 4 µg/mL; in series [4] (setting [17]) it was 4 µg/mL; in series [5] (setting [16]) it was 0.03 µg/mL.
As to `CC(C)(O/N=C(\C(=O)N[C@@H]1C(=O)N2C(C(=O)[O-])=C(C[n+]3ccccc3)CS[C@H]12)c1csc(N)n1)C(=O)O` [CAZ, Ceftazidime], the MIC was 0.25 µg/mL in [6]; above 64 µg/mL in [7]; 0.25 µg/mL in [8]; 16 µg/mL in series [9]; above 64 µg/mL in series [10]; above 64 µg/mL in series [11]. Besides, the MIC in series [2] (setting [16]) is 64 µg/mL; in series [2] (setting [17]), 64 µg/mL; in [3] (setting [16]), above 64 µg/mL; in series [3] (setting [17]), above 64 µg/mL; in series [4] (setting [16]) it was above 64 µg/mL; in series [4] (setting [17]) it was above 64 µg/mL. The MIC came out at 32 µg/mL in series [12] (setting [16]), 32 µg/mL in series [12] (setting [17]), 1 µg/mL in series [5] (setting [16]) and 1 µg/mL in [5] (setting [17]). The “in vivo biological half life” value in [13] is 1.7-2.1 hrs.
As for `CO/N=C(\C(=O)N[C@@H]1C(=O)N2C(C(=O)O)=C(CSc3nc(=O)c(=O)[nH]n3C)CS[C@H]12)c1csc(N)n1` [Ceftriaxon], the “in vivo biological half life” value in [13] is given as 5.8-8.7 hrs.
As to `O=C(O)[C@H]1/C(=C/CO)O[C@@H]2CC(=O)N21` [Clavulanate], the “in vivo biological half life” value in series [13] is reported as 0.7-1.4 hrs.
Turning to `C[C@@H](O)[C@H]1C(=O)N2C(C(=O)O)=C(SCCN=CN)C[C@H]12` [Imipenem], the “in vivo biological half life” value in series [13] was 0.9 hrs.
Take `C[C@H](O)[C@H]1C(=O)N2C(C(=O)O)=C(C(C)(C)CCCN)O[C@H]12` [YOB, (5R,6R,1′S)-3-(4-amino-1,1-dimethylbutyl)-6-(1-hydroxyethyl)-7-oxo-4-oxa-1-azabicyclo[3.2.0]hept-2-ene-2-carboxylic Acid]: the “Conc. (mg/L) 5 min” value in series [1] (plasma, SC 50 mg per kg, 5 min, mean of 3) is recorded as 40.12 mg/L. In addition, the “Conc. (mg/L) 10 min” value in [1] (plasma, SC 50 mg per kg, 10 min, mean of 3) came to 44.88 mg/L. Moreover, the “Conc. (mg/L) 20 min” value in [1] (plasma, SC 50 mg per kg, 20 min, mean of 3) is reported as 13.79 mg/L. Besides, the “Conc. (mg/L) 30 min” value in [1] (plasma, SC 50 mg per kg, 30 min, mean of 3) was 10.4 mg/L. In addition, the bioavailability result in [1] was “remarkably superior bioavailability”. For the same compound, the results for the minimum inhibitory concentration (MIC) in [6] and in series [8] were 0.03 µg/mL and 0.06 µg/mL, respectively. Further, the Half-live of hydrolysis in [14] is reported as 7.0 h. For the same compound, in series [15] (bovine serum, 37° C., compared to XOB), the “stability in blood serum” value is recorded as “far more stable than XOB in blood serum”. The “Serum half life at 37° C.” value in series [15] (sterile bovine serum, 0.033% concentration) is 2.4 h.
